Assay results published in US12637471B2, “Heterocyclic compounds, compositions, methods of preparation and uses thereof” (Organon R&D Finland Ltd, priority 2021, dated 2026).

How the values were obtained:
Assay type in all cases: biochemical
[1] = target: T1, Recombinant human aldo-keto reductase family 1 member C2 (AKR1C2) protein (Homo sapiens, UniProt P52895); test: Inhibition of the aldo-keto reductase family 1 member C2, 3H-dihydrotestosterone conversion; conditions: inhibitor at 10 μM
T1 construct: made in house; host or cells: Sf-9 insect cells (baculovirus)
T1 sequence (P52895 1-323): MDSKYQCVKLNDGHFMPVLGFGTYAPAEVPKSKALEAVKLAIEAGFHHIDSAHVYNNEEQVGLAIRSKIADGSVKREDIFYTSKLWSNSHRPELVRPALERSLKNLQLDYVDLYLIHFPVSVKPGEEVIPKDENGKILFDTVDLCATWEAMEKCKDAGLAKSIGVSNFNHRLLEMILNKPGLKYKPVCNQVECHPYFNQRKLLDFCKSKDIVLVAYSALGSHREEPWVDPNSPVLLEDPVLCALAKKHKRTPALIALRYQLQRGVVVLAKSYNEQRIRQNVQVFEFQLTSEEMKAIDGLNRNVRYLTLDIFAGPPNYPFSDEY
How it was run: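 Sf-9-expressed enzyme (13.6 nM) incubated 45 min at 37 °C in 20 mM KH2PO4 pH 7.4 with 1 mM NADPH, 6.25 nM [3H]dihydrotestosterone and 10 μM compound (1% DMSO). After TCA stop, substrate and 5α-androstane-3α,17β-diol resolved by UPLC with radio-detection; inhibition from percent conversion.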

[2] = target: T2, Recombinant human AKR1C3 (17β-HSD5) protein (Homo sapiens, UniProt P42330); test: Inhibition of AKR1C3 (17β-hydroxysteroid dehydrogenase type 5) enzyme, fluorescence assay; conditions: inhibitor at 500 nM
T2 construct: made in house; host or cells: E. coli
T2 sequence (P42330 1-323): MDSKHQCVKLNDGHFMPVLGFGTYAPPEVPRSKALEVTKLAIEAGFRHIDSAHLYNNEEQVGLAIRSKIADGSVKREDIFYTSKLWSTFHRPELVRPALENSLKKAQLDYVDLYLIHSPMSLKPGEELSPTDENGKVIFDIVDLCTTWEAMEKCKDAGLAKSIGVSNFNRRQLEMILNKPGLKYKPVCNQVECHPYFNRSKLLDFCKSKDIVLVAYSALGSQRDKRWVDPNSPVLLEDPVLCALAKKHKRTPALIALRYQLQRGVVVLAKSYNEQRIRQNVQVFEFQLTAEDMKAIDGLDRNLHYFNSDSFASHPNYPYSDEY
How it was run: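 E. coli-expressed human AKR1C3 (27 nM) in 20 mM KH2PO4, 1 mM EDTA, pH 7.4, with 1 μM pyranoquinolinone ketone substrate, 1 mM NADPH and inhibitor at 500 nM, 1% DMSO, 60–120 min at RT. Fluorescent alcohol product (ex 420/em 510 nm) quantified against standards; inhibition derived from conversion percentages.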

[3] = target: T3, 17β-Hydroxysteroid Dehydrogenase Type 2 Enzyme (17β-HSD2) (Homo sapiens, UniProt P37059); test: Inhibition of the 17β-hydroxysteroid dehydrogenase type 2 enzyme, 3H-testosterone conversion; conditions: inhibitor at 10 μM
T3 construct: made in house; host or cells: Sf-9 insect cells (baculovirus)
T3 sequence (P37059 1-387): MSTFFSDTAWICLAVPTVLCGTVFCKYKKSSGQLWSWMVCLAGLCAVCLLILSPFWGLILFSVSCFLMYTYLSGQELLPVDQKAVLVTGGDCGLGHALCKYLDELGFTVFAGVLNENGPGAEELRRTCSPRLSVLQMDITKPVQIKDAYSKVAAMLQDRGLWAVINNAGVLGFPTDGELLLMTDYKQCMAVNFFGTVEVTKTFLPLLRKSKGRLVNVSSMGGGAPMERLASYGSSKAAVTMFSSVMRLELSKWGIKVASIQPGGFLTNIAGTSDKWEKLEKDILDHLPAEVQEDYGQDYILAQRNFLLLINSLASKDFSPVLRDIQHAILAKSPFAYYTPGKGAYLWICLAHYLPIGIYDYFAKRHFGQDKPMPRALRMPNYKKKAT
How it was run: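 Recombinant human 17β-HSD2 (Sf-9/baculovirus; 105 nM) incubated with 56.25 nM ³H-testosterone and 1 mM NAD in 20 mM KH2PO4 pH 8.5, 1 mM EDTA, 1% DMSO, 30 min at RT, inhibitor 10 μM. Reaction stopped with TCA; conversion to ³H-androstenedione by radio-UPLC gives percent inhibition.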

Row | inhibition at 10 µM [1] [%] | inhibition at 0.5 µM [2] [%] | inhibition at 10 µM [3] [%] | Compound
1 | 8 | 98 | 13 | N#CC(=C1CCN(C(=O)N2CCC(CCO)CC2)CC1)c1ccc(Cl)cc1 [Compound 131, 2-(4-chlorophenyl)-2-(1-(4-(2-hydroxyethyl)piperidine-1-carbonyl)piperidin-4-ylidene) acetonitrile]
2 | 6 | 98 | 23 | N#CC(=C1CCN(C(=O)N2CCc3nocc3C2)CC1)c1ccc(F)cn1 [Compound 84, 2-(5-fluoropyridin-2-yl)-2-(1-(4,5,6,7-tetrahydroisoxazolo[4,3-c]pyridine-5-carbonyl)piperidin-4-ylidene)acetonitrile]
3 | 23 | 99 | 23 | COC1CCN(C(=O)N2CCC(=C(C#N)c3ccc(F)cc3F)CC2)CC1 [Compound 91, 2-(2,4-difluorophenyl)-2-(1-(4-methoxypiperidine-1-carbonyl)piperidin-4-ylidene)acetonitrile]
4 | 0 | 96 | -1 | N#CC(=C1CCN(C(=O)N2CCC(O)CC2)CC1)c1ccc(OC(F)(F)F)cc1 [Compound 115, 2-(1-(4-hydroxypiperidine-1-carbonyl)piperidin-4-ylidene)-2-(4-(trifluoromethoxy)phenyl)acetonitrile]
5 | 12 | 96 | 26 | N#CC(=C1CCN(C(=O)N2CCc3cc(F)ccc32)CC1)c1ccc(F)cc1 [Compound 109, 2-(1-(5-fluoroindoline-1-carbonyl)piperidin-4-ylidene)-2-(4-fluorophenyl)acetonitrile]
6 | 4 | 99 | 8 | N#CC(=C1CCN(C(=O)N2CCn3ncnc3C2)CC1)c1ccc(C(F)(F)F)cc1 [Compound 152, 2-(1-(5,6,7,8-tetrahydro-[1,2,4]triazolo[1,5-a]pyrazine-7-carbonyl)piperidin-4-ylidene)-2-(4-(trifluoromethyl)phenyl)acetonitrile]
7 | 11 | 98 | 8 | N#CC(=C1CCN(C(=O)N2CCn3cncc3C2)CC1)c1ccc(Cl)cn1 [Compound 68, 2-(5-chloropyridin-2-yl)-2-(1-(5,6,7,8-tetrahydroimidazo[1,5-a]pyrazine-7-carbonyl)piperidin-4-ylidene)acetonitrile]
8 | 43 | 99 | 20 | N#CC(=C1CCN(C(=O)N2CCc3[nH]ncc3C2)CC1)c1ccc(Cl)s1 [Compound 120, 2-(5-chlorothiophen-2-yl)-2-(1-(4,5,6,7-tetrahydro-1H-pyrazolo[4,3-c]pyridine-5-carbonyl)piperidin-4-ylidene)acetonitrile]
9 | 21 | 96 | 23 | N#CC(=C1CCN(C(=O)N2CCC(CCO)CC2)CC1)c1cccc(Cl)c1 [Compound 140, 2-(3-chlorophenyl)-2-(1-(4-(2-hydroxyethyl)piperidine-1-carbonyl)piperidin-4-ylidene)acetonitrile]
10 | 7 | 94 | 9 | N#CC(=C1CCN(C(=O)N2CCC(CCO)CC2)CC1)c1ccc(C(F)(F)F)cc1 [Compound 149, 2-(1-(4-(2-hydroxyethyl)piperidine-1-carbonyl)piperidin-4-ylidene)-2-(4-(trifluoromethyl)phenyl)acetonitrile]
11 | 13 | 95 | 11 | CC(=O)N1CCN(C(=O)N2CCC(=C(C#N)c3cccc(Cl)c3)CC2)CC1 [Compound 96, 2-(1-(4-acetylpiperazine-1-carbonyl)piperidin-4-ylidene)-2-(3-chlorophenyl)acetonitrile]

The remaining lines, values behind:

Row | Compound | inhibition at 10 µM [1] [%] | inhibition at 0.5 µM [2] [%] | inhibition at 10 µM [3] [%]
12 | N#CC(=C1CCN(C(=O)N2CCn3cncc3C2)CC1)c1cccc2[nH]ncc12 [Compound 61, 2-(1H-indazol-4-yl)-2-(1-(5,6,7,8-tetrahydroimidazo[1,5-a]pyrazine-7-carbonyl)piperidin-4-ylidene)acetonitrile] | 7 | 99 | 30
13 | N#CC(=C1CCN(C(=O)N2CCc3sccc3C2)CC1)c1cc(F)cc(F)c1 [Compound 51, 2-(3,5-difluorophenyl)-2-(1-(4,5,6,7-tetrahydrothieno[3,2-c]pyridine-5-carbonyl)piperidin-4-ylidene)acetonitrile] | 18 | 96 | 26
14 | N#CC(=C1CCN(C(=O)N2CC(C#N)C2)CC1)c1ccc(F)cc1 [Compound 23, 1-(4-(cyano(4-fluorophenyl)methylene)piperidine-1-carbonyl)azetidine-3-carbonitrile] | 13 | 96 | 1
15 | N#CC(=C1CCN(C(=O)N2C3CCC2COC3)CC1)c1cccc(Cl)c1 [Compound 156, 2-(1-(3-oxa-8-azabicyclo[3.2.1]octane-8-carbonyl)piperidin-4-ylidene)-2-(3-chlorophenyl)acetonitrile] | 8 | 99 | 12
16 | N#CC(=C1CCN(C(=O)N2CCOCC2)CC1)c1ccc(F)cc1 [Compound 1, 2-(4-fluorophenyl)-2-(1-(morpholine-4-carbonyl)piperidin-4-ylidene)acetonitrile] | 5 | 99 | 2
17 | N#CC(=C1CCN(C(=O)N2CCC(CO)CC2)CC1)c1ccc(Cl)cn1 [Compound 65, 2-(5-chloropyridin-2-yl)-2-(1-(4-(hydroxymethyl)piperidine-1-carbonyl)piperidin-4-ylidene)acetonitrile] | 2 | 97 | 2
18 | N#CC(=C1CCN(C(=O)N2CCn3cncc3C2)CC1)c1ccc(F)c(F)c1 [Compound 44, 2-(3,4-difluorophenyl)-2-(1-(5,6,7,8-tetrahydroimidazo[1,5-a]pyrazine-7-carbonyl)piperidin-4-ylidene)acetonitrile] | 18 | 103 | 12
19 | N#CC(=C1CCN(C(=O)N2CCc3nocc3C2)CC1)c1ccc(F)cc1F [Compound 38, 2-(2,4-difluorophenyl)-2-(1-(4,5,6,7-tetrahydroisoxazolo[4,3-c]pyridine-5-carbonyl)piperidin-4-ylidene)acetonitrile] | 30 | 97 | 27
20 | N#CC(=C1CCN(C(=O)N2CCOCC2)CC1)c1ccc(Cl)cc1 [Compound 2, 2-(4-chlorophenyl)-2-(1-(morpholine-4-carbonyl)piperidin-4-ylidene)acetonitrile] | 4 | 99 | 3
21 | N#CC(=C1CCN(C(=O)N2Cc3ccccc3C2)CC1)c1ccc(F)cc1 [Compound 11, 2-(4-fluorophenyl)-2-(1-(isoindoline-2-carbonyl)piperidin-4-ylidene)acetonitrile] | 17 | 96 | 24
